Laboratory results as given in patent US9988343B2, “Inhibitors of histone deacetylase” (Dana-Farber Cancer Institute, Inc., priority 2013, dated 2018).
Read-outs that look alike come from different tables or passages of the source.

Key:
MM.1S cells [1] = test: Immunoblot of caspase-3 and PARP cleavage; assay type: cell-based, human; conditions: 15 μM (FIG. 6E)
MM.1S cells [2] = test: Immunoblot of histone and α-tubulin acetylation in MM.1S cells; assay type: cell-based, human; conditions: 12 h, Compound 10 10 and 20 μM
MM.1S xenograft = test: Subcutaneous MM.1S murine xenograft model; assay type: in vivo; conditions: SCID mice
Protocol: CB17 SCID mice (48-54 days old) were purchased from Charles River Laboratories (Wilmington, Mass.). All animal studies were conducted according to protocols approved by the Animal Ethics Committee of the Dana-Farber Cancer Institute. After irradiation (200cGy), mice were subcutaneously injected with 5×10^6 MM.1S cells in the right flank. […] Tumor size was measured every three days, and tumor volume was calculated with the formula: V=0.5 (a×b^2), where “a” is the long diameter of the tumor and “b” is the short diameter of the tumor. Mice were sacrificed when the tumor reached 2 cm in length or 2 cm^3 volume, or if mice appeared moribund to prevent unnecessary morbidity. Survival was evaluated from the first day of the treatment until death. […] These SCID mice were subcutaneously injected with 5×10^6 MM.1S cells. […] Tumor volume was calculated from caliper measurements twice weekly, and data represent mean±SD (FIG. 9A).

[3] = test system: STAT3 acetylation in MM.1S cells; test: Immunoprecipitation/immunoblot of STAT3 acetylation; assay type: cell-based, human; conditions: 20 μM, 18 hours (FIG. 6H)
Protocol: Whole-cell lysates were incubated with anti-STAT3, -JAK2, and -green fluorescent protein (GFP) Abs for 2 hours at 4° C., and then incubated with Protein A/G PLUS-Agarose® (Santa Cruz Biotechnology) overnight at 4° C. Anti-GFP Ab served as a control. Immune complexes were analyzed by immunoblotting with anti-STAT3, -JAK2, -acetylated-Lysine, and -phosphorylated-tyrosine Abs. […] Whole cell lysates were immunoprecipitated with anti-STAT3 Ab. Immunoprecipitates were then subjected to SDS-PAGE and immunoblotted with anti-Ac-K and -STAT3 Abs.

HDAC1 = HDAC1 (Homo sapiens, UniProt Q13547); test: HDAC1 inhibitory activity (IC50); assay type: biochemical
Protocol: (§1) HDAC inhibitor compounds designed and synthesized in accordance with the present invention were tested for their inhibitor activity against several different HDAC isoforms.

HDAC6 [4] = target: T1, HDAC6 (Homo sapiens, UniProt Q9UBN7); test: HDAC6 inhibitory activity (IC50); assay type: biochemical
T1 sequence (Q9UBN7 1-1215): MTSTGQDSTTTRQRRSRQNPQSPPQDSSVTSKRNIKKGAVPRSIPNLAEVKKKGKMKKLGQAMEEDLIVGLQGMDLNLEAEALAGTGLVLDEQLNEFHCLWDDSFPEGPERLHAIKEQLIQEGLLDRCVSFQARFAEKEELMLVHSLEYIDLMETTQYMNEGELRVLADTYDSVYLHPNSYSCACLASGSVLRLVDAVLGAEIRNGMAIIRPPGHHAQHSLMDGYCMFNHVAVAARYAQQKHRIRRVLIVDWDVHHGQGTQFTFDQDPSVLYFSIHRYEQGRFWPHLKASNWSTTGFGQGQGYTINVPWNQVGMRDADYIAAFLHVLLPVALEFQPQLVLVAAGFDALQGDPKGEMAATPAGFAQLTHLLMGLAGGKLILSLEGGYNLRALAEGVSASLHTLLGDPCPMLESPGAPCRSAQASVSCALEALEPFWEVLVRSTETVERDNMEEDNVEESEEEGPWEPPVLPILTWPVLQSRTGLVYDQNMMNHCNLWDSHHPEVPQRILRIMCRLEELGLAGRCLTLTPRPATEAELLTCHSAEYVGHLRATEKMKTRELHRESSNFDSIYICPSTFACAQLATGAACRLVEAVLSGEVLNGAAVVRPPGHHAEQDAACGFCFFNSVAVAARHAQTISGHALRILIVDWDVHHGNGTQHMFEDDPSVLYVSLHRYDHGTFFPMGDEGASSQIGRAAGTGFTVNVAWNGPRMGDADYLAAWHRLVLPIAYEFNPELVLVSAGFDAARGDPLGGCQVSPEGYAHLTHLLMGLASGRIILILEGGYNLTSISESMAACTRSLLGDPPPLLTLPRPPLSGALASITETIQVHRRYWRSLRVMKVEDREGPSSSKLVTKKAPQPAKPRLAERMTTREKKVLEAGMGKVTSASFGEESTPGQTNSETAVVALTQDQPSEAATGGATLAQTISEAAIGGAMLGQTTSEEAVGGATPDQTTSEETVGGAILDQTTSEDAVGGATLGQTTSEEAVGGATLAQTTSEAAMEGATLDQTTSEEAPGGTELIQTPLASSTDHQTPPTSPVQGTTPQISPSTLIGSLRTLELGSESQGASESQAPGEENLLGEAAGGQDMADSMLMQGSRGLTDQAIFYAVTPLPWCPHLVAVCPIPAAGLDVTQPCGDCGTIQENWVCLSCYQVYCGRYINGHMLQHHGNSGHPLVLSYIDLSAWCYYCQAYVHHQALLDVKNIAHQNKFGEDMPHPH
Protocol: as §1

MM cell lines = test: Cell growth inhibition assay (MTT) in MM cell lines; assay type: cell-based, human; conditions: MM.1S, RPMI8226, U266, OPM1, H929; 1.875-30 μM, 48 h and 72 h, MTT (FIG. 6A)
Protocol: To measure proliferation of MM cells, the rate of DNA synthesis was measured by ^3[H]-thymidine (Perkin-Elmer) uptake.
The growth inhibitory effect of Merck60 (HDACL, 2 inhibitor previously reported as compound #60 by Method et al. Bioorg. Med. Chem. Lett. 2008. 18(3):973-8) versus MS275 (HDAC1, 2, 3 inhibitor) was examined in MM cell lines using MTT assay. MM cells were cultured with Merck60 (left panel) or MS275 (right panel) for 48 hours. Cell growth was assessed by MTT assay. All experiments were performed 3 times in quadruplicate. Data represent mean±SD.
Cell growth was assessed by MTT assay. All experiments were performed 3 times in quadruplicate. Data represent mean±SD.

RPMI8226 cells = test: Combination with bortezomib, MTT cytotoxicity, combination index; assay type: cell-based, human; conditions: for CI (combination index): RPMI8226, MTT, 24 h
Protocol: The combined effect of drugs was analyzed by isobologram analysis using the Compusyn software program (ComboSyn, Inc.); a combination index (CI)<1 is indicative of a synergistic effect.
All experiments were performed 3 times in quadruplicate. Data represent mean±SD (FIG. 7D).

HDAC6 [5] = target: T1, HDAC6; test: Western blot for acetylated alpha-tubulin (HDAC6 inhibition in cells); assay type: cell-based; conditions: 10 or 20 um (FIG. 8A)
pERK1/2 (Thr202/204) = test: Immunoblot of ERK phosphorylation; assay type: cell-based, human; conditions: MM.1S, 10 and 20 μM, 10 hours, then IL-6 10 ng/mL 4 hours (FIG. 6G)
PBMCs = test: MTT growth assay in normal donor PBMCs; assay type: cell-based, human; conditions: 7.5, 15, 30 μM, 72 hours, MTT (FIG. 6C)
Protocol: BM specimens were obtained from patients with MM, and mononuclear cells (MNCs) were separated by Ficoll-Hipaque density sedimentation. Primary CD138+ plasma cells from MM patients were obtained using negative selection, as in previous studies. […] CD138-BMMNCs were used to establish long-term BMSC cultures, as previously described. […] Peripheral blood mononuclear cells were collected from healthy volunteers to obtain mononuclear cells (PBMCs). All procedures were performed with IRB-approved (Dana-Farber Cancer Institute) protocols and informed consent, and in accordance with the Declaration of Helsinki protocol. […] Cell growth was then assessed by MTT assay. Data represents mean±SD from triplicates cultures (FIG. 6B). […] Cell growth was assessed by MTT assay. The data represents mean±SD from triplicate cultures (FIG. 6C).

Sequence of HDAC1 (Q13547 whole entry): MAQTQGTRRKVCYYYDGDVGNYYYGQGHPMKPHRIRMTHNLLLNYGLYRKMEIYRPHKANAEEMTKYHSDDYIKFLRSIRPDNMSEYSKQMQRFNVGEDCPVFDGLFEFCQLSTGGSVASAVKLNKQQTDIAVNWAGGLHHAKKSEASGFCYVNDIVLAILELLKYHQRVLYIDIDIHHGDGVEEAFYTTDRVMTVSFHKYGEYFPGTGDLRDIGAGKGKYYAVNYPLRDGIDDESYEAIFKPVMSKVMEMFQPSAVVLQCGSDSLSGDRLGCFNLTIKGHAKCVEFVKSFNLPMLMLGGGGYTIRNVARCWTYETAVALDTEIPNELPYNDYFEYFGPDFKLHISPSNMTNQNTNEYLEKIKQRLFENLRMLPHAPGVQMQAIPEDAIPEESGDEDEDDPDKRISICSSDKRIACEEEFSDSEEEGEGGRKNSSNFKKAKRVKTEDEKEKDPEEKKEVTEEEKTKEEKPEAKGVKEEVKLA

SMILES: Nc1ccccc1NC(=O)c1cnccn1 [Compound 10, N-(2-aminophenyl)pyrazine-2-carboxamide]
- caspase-3/PARP cleavage (apoptosis) (MM.1S cells [1]): induces caspase-dependent apoptosis
- histone acetylation (MM.1S cells [2]; LBH589 50 and 100 nM (FIG. 6F left)): significantly induced acetylation of histone H2A, H3, and H4
- α-tubulin acetylation (biomarker of HDAC6 inhibition) (MM.1S cells [2]; LBH589 50 and 100 nM (FIG. 6F right)): did not increase α-tubulin acetylation
- MM tumor growth (tumor volume) (MM.1S xenograft; 15 and 50 mg/kg IP 5 days a week for 3 weeks, versus control, day 22 p<0.05 (FIG. 9A)): significantly inhibited MM tumor growth
- tumor growth, combination with bortezomib (MM.1S xenograft; Compound 10 50 mg/kg + bortezomib 0.5 mg/kg sc twice a week, p<0.05): further enhanced either single agent activity
- acetylation of STAT3 [3]: increased acetylation of STAT3
- IC50 (HDAC1; Table 2, read-out: HDAC1): 922 nM
- IC50 (HDAC1; Table 3, read-out: IC50 against the deacetylase activity of HDAC1): 2000 nM
- IC50 (HDAC6 [4]; Table 2, read-out: HDAC6): 79000 nM
- IC50 (HDAC6 [4]; Table 3, read-out: IC50 against the deacetylase activity of HDAC6): > 20000 nM
- MM cell growth (MM cell lines): significantly inhibited MM cell growth in a dose-dependent fashion
- CI (combination index) (RPMI8226 cells; BG45 5 μM + bortezomib 2 nM): 1.04
- CI (combination index) (RPMI8226 cells; BG45 5 μM + bortezomib 3 nM): 0.83
- CI (combination index) (RPMI8226 cells; BG45 5 μM + bortezomib 4 nM): 0.84
- CI (combination index) (RPMI8226 cells; BG45 10 μM + bortezomib 2 nM): 1.19
- CI (combination index) (RPMI8226 cells; BG45 10 μM + bortezomib 3 nM): 0.78
- CI (combination index) (RPMI8226 cells; BG45 10 μM + bortezomib 4 nM): 0.77
- CI (combination index) (RPMI8226 cells; BG45 20 μM + bortezomib 2 nM): 0.91
- CI (combination index) (RPMI8226 cells; BG45 20 μM + bortezomib 3 nM): 0.67
- CI (combination index) (RPMI8226 cells; BG45 20 μM + bortezomib 4 nM): 0.63
- bortezomib-induced cytotoxicity (RPMI8226 cells; RPMI8226, bortezomib 2-4 nM + 5, 10, 20 μM Compound 10, 24 h (FIG. 7D)): synergistically enhanced bortezomib-induced cytotoxicity
- inhibition of HDAC6 by acetylated alpha-tubulin Western blot (HDAC6 [5]): did not inhibit HDAC6
- p-ERK1/2 (pERK1/2 (Thr202/204)): without affecting p-ERK1/2
- growth of normal donor PBMCs (PBMCs): without affecting normal donor PBMCs
